Test results published in ChEMBL document CHEMBL3638666, “Selective kinase inhibitors” (2013).

Experiments:
[1] = biological target: Non-receptor tyrosine-protein kinase TYK2 (Homo sapiens, UniProt P29597); assay: (§1) In Vitro Kinase Enzyme Assay: In vitro kinase enzyme assay using Jak3, Jak2, Jak1, and Tyk2.
[2] = biological target: Tyrosine-protein kinase JAK1 (Homo sapiens, UniProt P23458); assay: as §1
[3] = biological target: Tyrosine-protein kinase JAK2 (Homo sapiens, UniProt O60674); assay: as §1
Sequence of Tyrosine-protein kinase JAK2 (O60674 whole entry): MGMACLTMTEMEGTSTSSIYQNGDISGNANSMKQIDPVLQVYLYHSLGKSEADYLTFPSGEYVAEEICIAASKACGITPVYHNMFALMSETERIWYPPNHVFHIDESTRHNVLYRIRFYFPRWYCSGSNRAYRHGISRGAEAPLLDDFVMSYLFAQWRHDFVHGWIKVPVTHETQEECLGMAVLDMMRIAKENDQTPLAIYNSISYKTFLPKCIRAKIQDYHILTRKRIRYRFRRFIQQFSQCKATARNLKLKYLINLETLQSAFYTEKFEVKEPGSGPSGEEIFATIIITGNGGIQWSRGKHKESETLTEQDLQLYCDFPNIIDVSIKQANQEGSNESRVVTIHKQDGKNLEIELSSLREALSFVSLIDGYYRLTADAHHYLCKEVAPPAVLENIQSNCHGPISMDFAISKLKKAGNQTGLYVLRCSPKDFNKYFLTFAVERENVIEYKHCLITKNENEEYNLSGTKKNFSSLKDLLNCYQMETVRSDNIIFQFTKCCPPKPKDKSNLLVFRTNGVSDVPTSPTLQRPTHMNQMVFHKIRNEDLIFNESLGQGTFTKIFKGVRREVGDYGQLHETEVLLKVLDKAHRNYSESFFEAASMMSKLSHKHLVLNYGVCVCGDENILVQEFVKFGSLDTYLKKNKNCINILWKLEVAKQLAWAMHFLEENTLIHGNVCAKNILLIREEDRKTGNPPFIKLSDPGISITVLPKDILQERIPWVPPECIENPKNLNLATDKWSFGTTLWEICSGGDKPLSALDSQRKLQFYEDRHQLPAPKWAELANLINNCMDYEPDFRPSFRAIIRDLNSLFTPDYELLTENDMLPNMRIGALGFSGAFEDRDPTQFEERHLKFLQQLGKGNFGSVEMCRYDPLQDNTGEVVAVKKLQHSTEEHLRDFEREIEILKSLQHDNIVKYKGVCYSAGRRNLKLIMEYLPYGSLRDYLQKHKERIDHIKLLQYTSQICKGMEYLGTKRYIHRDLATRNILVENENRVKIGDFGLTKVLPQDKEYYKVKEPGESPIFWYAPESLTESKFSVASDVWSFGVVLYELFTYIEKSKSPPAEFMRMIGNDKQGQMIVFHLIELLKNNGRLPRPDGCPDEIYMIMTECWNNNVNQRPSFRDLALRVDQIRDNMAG

[4] = biological target: T1, Tyrosine-protein kinase JAK3 (Homo sapiens, UniProt P52333); assay: as §1
T1 sequence (P52333 whole entry): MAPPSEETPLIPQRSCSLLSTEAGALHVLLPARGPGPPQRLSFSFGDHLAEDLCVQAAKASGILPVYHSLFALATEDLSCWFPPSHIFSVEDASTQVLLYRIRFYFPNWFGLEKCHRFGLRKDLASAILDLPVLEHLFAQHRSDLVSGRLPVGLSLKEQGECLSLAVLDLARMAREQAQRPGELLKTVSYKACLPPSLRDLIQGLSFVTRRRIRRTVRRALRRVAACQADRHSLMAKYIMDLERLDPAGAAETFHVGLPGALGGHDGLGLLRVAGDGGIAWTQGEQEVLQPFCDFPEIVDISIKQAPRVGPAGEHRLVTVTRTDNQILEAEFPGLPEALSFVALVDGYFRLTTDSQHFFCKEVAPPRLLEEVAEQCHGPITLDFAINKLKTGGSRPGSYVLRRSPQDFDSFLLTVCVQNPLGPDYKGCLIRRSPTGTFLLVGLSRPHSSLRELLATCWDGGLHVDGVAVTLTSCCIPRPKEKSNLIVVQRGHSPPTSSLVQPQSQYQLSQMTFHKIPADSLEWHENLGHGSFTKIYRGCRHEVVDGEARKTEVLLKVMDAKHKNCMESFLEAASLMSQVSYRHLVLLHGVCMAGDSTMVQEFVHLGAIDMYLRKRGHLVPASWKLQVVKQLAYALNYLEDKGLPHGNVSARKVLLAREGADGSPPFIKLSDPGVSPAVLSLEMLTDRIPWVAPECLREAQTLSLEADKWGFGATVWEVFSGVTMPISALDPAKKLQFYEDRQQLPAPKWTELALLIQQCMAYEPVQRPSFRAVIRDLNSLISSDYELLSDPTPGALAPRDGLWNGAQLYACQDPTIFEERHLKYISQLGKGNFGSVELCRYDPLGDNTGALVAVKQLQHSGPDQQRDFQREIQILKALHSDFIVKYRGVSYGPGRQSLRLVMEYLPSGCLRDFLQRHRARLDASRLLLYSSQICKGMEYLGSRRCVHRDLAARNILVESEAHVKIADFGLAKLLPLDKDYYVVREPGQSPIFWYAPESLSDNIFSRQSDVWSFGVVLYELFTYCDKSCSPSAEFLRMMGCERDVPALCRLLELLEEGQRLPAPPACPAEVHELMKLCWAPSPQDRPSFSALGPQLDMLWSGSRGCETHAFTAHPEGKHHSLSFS

Sequence of Tyrosine-protein kinase JAK1 (P23458 whole entry): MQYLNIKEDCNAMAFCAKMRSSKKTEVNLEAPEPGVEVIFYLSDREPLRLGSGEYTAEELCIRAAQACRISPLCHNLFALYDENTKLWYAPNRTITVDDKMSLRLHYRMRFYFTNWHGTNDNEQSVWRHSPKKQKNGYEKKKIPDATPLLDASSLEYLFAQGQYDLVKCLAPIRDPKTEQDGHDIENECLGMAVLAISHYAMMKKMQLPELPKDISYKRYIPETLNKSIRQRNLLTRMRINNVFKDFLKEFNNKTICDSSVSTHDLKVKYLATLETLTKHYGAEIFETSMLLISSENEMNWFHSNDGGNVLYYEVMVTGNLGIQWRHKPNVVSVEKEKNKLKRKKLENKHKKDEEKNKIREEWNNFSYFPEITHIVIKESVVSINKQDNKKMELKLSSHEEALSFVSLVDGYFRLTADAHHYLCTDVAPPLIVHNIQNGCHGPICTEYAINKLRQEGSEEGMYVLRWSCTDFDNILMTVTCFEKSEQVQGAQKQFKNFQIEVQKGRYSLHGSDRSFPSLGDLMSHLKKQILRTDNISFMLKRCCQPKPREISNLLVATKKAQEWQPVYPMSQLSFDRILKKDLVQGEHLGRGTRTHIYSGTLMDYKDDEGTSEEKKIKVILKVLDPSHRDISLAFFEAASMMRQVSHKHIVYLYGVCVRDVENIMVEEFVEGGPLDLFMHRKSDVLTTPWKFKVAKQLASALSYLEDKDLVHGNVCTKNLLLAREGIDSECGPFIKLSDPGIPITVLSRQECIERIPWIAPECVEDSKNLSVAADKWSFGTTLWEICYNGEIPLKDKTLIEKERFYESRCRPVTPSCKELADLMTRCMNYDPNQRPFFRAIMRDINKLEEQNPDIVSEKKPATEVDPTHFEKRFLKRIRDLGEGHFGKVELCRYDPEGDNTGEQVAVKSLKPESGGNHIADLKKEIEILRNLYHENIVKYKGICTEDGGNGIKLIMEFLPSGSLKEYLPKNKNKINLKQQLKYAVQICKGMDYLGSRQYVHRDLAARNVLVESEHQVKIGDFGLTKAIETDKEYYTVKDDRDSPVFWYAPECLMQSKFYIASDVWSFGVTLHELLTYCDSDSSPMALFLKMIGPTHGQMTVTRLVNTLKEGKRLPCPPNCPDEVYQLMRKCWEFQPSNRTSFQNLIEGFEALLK
Sequence of Non-receptor tyrosine-protein kinase TYK2 (P29597 whole entry): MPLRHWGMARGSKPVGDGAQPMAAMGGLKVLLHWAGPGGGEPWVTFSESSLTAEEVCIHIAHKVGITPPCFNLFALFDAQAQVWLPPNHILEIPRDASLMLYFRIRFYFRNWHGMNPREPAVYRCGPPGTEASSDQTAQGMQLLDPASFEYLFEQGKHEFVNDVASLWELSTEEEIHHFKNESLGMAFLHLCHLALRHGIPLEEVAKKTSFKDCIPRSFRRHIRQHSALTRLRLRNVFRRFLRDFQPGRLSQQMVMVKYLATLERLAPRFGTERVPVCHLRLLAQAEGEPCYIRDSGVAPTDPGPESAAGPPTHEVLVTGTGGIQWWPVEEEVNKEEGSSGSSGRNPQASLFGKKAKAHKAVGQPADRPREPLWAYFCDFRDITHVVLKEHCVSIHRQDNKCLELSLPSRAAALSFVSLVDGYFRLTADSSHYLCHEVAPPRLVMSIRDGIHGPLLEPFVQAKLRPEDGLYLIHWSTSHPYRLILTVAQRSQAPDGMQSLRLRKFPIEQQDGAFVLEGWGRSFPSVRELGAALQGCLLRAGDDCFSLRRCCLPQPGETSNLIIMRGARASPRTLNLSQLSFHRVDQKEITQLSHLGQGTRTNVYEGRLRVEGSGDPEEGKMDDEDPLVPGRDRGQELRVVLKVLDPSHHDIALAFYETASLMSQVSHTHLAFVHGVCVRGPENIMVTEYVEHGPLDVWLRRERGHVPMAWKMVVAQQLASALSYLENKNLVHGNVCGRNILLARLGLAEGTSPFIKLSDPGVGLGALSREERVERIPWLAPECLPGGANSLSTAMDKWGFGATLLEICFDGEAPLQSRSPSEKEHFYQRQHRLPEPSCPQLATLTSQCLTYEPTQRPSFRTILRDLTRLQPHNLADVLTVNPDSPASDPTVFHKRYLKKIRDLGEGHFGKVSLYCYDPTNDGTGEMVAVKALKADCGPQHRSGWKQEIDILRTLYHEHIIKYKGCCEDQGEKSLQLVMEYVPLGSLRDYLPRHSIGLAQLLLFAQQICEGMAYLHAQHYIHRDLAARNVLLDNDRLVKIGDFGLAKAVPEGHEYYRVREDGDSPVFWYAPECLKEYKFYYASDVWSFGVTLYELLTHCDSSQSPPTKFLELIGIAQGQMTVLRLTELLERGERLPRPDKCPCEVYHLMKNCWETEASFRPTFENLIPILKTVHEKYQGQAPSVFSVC

- IC50 [1]: > 10 µM
- IC50 [2]: > 10 µM
- IC50 [3]: > 10 µM
- IC50 [4]: 0.0003 µM
Structure (SMILES): O=C(CBr)Nc1cccc(-c2cnc3ccccc3n2)c1
